From patent publication EP3502102A1, “STING INHIBITORS” (ECOLE POLYTECHNIQUE FEDERALE DE LAUSANNE (EPFL), priority 2017, dated 2019) come the findings set out here.

Assay [1] concerns the target T1, STING (Mus musculus, UniProt Q3TBT3).
T1 sequence (Q3TBT3 1-378): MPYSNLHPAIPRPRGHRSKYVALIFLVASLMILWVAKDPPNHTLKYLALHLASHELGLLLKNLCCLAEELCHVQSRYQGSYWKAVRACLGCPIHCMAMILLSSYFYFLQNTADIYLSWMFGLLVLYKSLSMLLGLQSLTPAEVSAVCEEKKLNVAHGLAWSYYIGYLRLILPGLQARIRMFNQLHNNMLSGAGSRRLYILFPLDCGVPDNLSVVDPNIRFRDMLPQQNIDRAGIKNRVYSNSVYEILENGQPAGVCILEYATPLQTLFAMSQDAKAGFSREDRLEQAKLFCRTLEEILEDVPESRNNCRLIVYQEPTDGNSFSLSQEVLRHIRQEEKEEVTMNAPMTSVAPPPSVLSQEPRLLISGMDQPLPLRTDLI
Description: IFN-beta luciferase reporter in HEK293T cells transfected with STING, alone or with a cyclic dinucleotide synthase. In kind it is cell-based. Set-up: expressed in transfected cells; host or cells: HEK293T. As to conditions: wild-type HEK293T; STING expressed alone or in conjunction with cdG-Syn; 0.01-5µM; 16 h. The method, then:
Reporter activity was measured 16 h after compound treatment. A nonlinear regression analysis was performed. […] Cytokine levels were normalized to DMSO-treated control cells. […] Nuclei were stained with DAPI. […] Depicted genes were measured by RT-qPCR. […] 16 h later Luciferase activity was measured. […] Flag-STING was immunoprecipitated and analysed by autoradiography.
HEK293T cells expressing murine STING with an N-terminal mCherry-tag ^28 were transfected using GeneJuice (Millipore) with a construct encoding for cyclic di-GMP synthase in conjunction with an IFN-• firefly luciferase reporter plasmid. 3 h after transfection cells were seeded in […] (Corning) coated with library compounds. For each compounds, a 40 nl volume was selected to obtain a concentration of 10 µM in the assay plates. The amount of DMSO in each well was normalised to 0.1%. After overnight treatment, cells were lysed in lysis buffer (25 mM Tris-phosphate (pH 7.8), 2 mM DTT, 2 mM 1,2-diaminocyclohexane-N,N,N',N'-tetraacetic acid, 10% glycerol, 1% Triton® X-100) for 20 min followed by the addition of firefly luciferase. Reporter activity was measured using a Tecan Infinite plate reader. The screen was performed using on ∼ 20.000 compounds from a chemically diverse compound collection available at the BSF core facility at EPFL.
In these cells, transient transfection of vectors encoding for cyclic di-GMP synthase (cdG-Syn) and an IFN-• reporter leads to robust induction of firefly luciferase activity. We used this system to perform a high-throughput chemical screen with a library of ∼ 20.000 small molecule compounds (Fig. 6b). To increase the selectivity of candidate compounds against the STING pathway, hits from the primary screen were counter-screened for their effect on RIG-I-driven activation of the IFN-• reporter. […] To further validate the two small molecules, we treated wild-type HEK293T cells with C-178 and C-176, in which STING was either expressed alone or in conjunction with cdG-Syn. […] We next conducted a limited structure-activity relationship (SAR) analysis. Since both C-178 and C-176 share a characteristic nitrofuran moiety, we prepared analogues of C-176/8 in which this structural motif was substituted (Fig. 1c).
(In general: Reporter assays use an easily measured gene product as a stand-in for the process of interest.)

In assay [2] the target is T1, STING. Nature of the assay: Metabolic labelling with [3H] palmitate, Flag-STING in HEK293T cells. Type of assay: cell-based. Details: expressed in transfected cells; host or cells: HEK293T. As to conditions: HEK293T expressing Flag-STING; 1 µM; CMA 2 h. The method, then:
Reporter activity was measured 16 h after compound treatment. A nonlinear regression analysis was performed. […] Circles indicate substitutes compared to C-176. d, e, Chemical compounds from (c) were tested at 0.5 µM for inhibitory activity in HEK293T cells transfected with STING (e) or RIG-I (f) in conjunction with IFN-• luciferase reporter, respectively. b, e, f, Values of inhibitor-treated cells were normalized to DMSO-treated cells. […] Cytokine levels were normalized to DMSO-treated control cells. A nonlinear regression analysis was performed for cGAMP stimulation. b, c, BMDMs were pre-treated with C-178 (0.25 µM) and stimulated with cGAMP, cyclic di-GMP, CMA, 90mer dsDNA or LPS for 3 h. The induction of Ifnb1 mRNA levels was assessed by RT-qPCR. d, Heatmaps of RNA sequencing analysis of BMDMs treated with DMSO or CMA and with or without addition of C-178. […] Reporter activity was measured 16 h after transfection and values were normalized to DMSO-treated control cells. c, BMDMs were treated with C-178 (0.25 µM) for 1 h, washed or left untreated and after an additional hour stimulated with cGAMP. […] Flag-STING was immunoprecipitated from whole cell lysate and analysed by autoradiography. In parallel, cell lysates were analysed by immunoblotting for p-TBK1 and STING. d, HEK293T cells expressing STING were treated as indicated (C-178 (1 µM)) and stimulated with CMA for 1.5 h. […]

Consider `O=C(Nc1ccc(I)cc1)c1ccc([N+](=O)[O-])o1` [C-176, N-(4-iodophenyl)-5-nitro-2-furamide], for which, at STING [1], the “half-maximal inhibitory concentration (IC50) values, IFN-• reporter activity” value was “nanomolar”. In addition, on STING [2], the “[^3H] palmitate labelling of STING” value is “inhibited”.
